# Laboratory results: patent publication US7947685B2, “Pyrazine-2-carboxyamide derivatives” (Hoffmann-La Roche Inc., priority 2005, dated 2011)
# Biological target: T1, human mGlu 5a receptor (Homo sapiens, UniProt P41594)
# T1 construct: expressed in transfected cells; host or cells: EBNA cells (transient transfection); cell membrane homogenates
# Assay: [3H]MPEP competition binding on membranes of EBNA cells transiently transfected with human mGlu 5a receptor
# Details: displacement of [3H]MPEP (2 nM), 1 h at 4° C.
# Experimental: The pharmacological activity of the compounds was tested using the following method: For binding experiments, cDNA encoding human mGlu 5a receptor was transiently transfected into EBNA cells using a procedure described by Schlaeger and Christensen [Cytotechnology 15:1-13 (1998)]. Cell membrane homogenates were stored at −80° C. until the day of assay where upon they were thawed and resuspended and polytronized in 15 mM Tris-HCl, 120 mM NaCl, 100 mM KCl, 25 mM CaCl2, 25 mM MgCl2 binding buffer at pH 7.4 to a final assay concentration of 20 μg protein/well.
# Saturation isotherms were determined by addition of twelve [^3H]MPEP concentrations (0.04-100 nM) to these membranes (in a total volume of 200 μl) for 1 h at 4° C. Competition experiments were performed with a fixed concentration of [^3H]MPEP (2 nM), and IC50 values of test compounds evaluated using […] (0.3-10,000 nM). Incubations were performed for 1 h at 4° C.
# At the end of the incubation, membranes were filtered onto unifilter (96-well white microplate with bonded GF/C filter preincubated 1 h in 0.1% PEI in wash buffer, Packard BioScience, Meriden, Conn.) with a Filtermate 96 harvester (Packard BioScience) and washed 3 times with cold 50 mM Tris-HCl, pH 7.4 buffer. Nonspecific binding was measured in the presence of 10 μM MPEP. The radioactivity on the filter was counted (3 min) on a Packard Top-count microplate scintillation counter with quenching correction after addition of 45 μl of microscint 40 (Canberra Packard S.A., Zürich, Switzerland) and shaking for 20 min.
# The inhibition (antagonists) curves were fitted with a four parameter logistic equation giving IC50, and Hill coefficient using iterative non linear curve fitting software (Xcel fit).
# For binding experiments the Ki values of the compounds tested are given. The Ki value is defined by the following formula: Ki=IC50/[1+L/Kd] in which the IC50 values are these concentrations of the compounds tested which cause 50% inhibition of the competing radioligand ([^3H]MPEP). L is the concentration of radioligand used in the binding experiment and the Kd value of the radioligand is empirically determined for each batch of membranes prepared.
# T1 sequence (P41594 21-1180 isoform P41594-2 limits assumed): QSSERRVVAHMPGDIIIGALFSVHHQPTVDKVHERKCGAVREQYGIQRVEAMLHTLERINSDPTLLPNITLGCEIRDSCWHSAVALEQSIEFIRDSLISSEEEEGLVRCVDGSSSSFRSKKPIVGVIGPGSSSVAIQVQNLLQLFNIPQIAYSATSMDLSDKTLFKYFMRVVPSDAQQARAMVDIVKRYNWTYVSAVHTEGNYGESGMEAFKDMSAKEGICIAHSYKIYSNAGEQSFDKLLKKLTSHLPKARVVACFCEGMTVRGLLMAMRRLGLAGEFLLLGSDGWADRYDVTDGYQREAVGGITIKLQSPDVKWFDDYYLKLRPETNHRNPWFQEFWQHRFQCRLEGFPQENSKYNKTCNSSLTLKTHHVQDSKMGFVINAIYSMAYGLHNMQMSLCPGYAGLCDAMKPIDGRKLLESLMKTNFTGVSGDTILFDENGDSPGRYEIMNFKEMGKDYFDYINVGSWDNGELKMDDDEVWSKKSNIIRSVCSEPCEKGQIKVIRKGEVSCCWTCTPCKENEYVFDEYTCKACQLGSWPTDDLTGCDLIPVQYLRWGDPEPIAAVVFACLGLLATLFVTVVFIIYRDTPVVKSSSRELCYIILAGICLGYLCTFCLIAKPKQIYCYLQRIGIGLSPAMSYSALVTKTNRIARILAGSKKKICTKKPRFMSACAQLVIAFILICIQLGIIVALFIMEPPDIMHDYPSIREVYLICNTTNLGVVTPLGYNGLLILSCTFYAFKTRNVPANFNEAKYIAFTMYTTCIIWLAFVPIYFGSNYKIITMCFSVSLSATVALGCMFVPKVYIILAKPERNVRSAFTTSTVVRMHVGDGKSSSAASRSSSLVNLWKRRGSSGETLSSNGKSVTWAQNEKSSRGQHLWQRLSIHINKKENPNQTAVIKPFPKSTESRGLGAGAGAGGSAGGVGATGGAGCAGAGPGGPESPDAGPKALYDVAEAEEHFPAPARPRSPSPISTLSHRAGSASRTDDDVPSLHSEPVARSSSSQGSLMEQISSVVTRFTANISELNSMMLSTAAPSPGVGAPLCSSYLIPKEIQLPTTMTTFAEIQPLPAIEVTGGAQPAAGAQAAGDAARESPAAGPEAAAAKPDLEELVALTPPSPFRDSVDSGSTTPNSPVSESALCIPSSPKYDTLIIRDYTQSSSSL
row,Ki [nM],SMILES
1,54,"O=C(Nc1cccc(Cl)c1)c1nccnc1Nc1cccnc1 [Example 1, 3-(Pyridin-3-ylamino)-pyrazine-2-carboxylic acid (3-chloro-phenyl)-amide]"
2,95,"O=C(Nc1cccc(Cl)c1)c1nccnc1Nc1ccccc1 [Example 2, 3-Phenylamino-pyrazine-2-carboxylic acid (3-chloro-phenyl)-amide]"
3,71,"Cn1ccc(NC(=O)c2nccnc2Nc2cncc(F)c2)n1 [Example 3, 3-(5-Fluoro-pyridin-3-ylamino)-pyrazine-2-carboxylic acid (1-methyl-1H-pyrazol-3-yl)-amide]"
4,761,"Cc1cc(NC(=O)c2nccnc2Nc2ccccc2)ccn1 [Example 4, 3-Phenylamino-pyrazine-2-carboxylic acid (2-methyl-pyridin-4-yl)-amide]"
5,1630,"Cc1cc(NC(=O)c2nc(C)cnc2Nc2cncc(Cl)c2)ccn1 [Example 5, 3-(5-Chloro-pyridin-3-ylamino)-6-methyl-pyrazine-2-carboxylic acid (2-methyl-pyridin-4-yl)-amide]"
